Several values for one entry are separate records, joined by “and”; a condition that tells them apart may be missing. Equal values may be shown once.
Legend:
Assay type in all cases: cell-based
[1] = system: human endocervical adenocarcinoma KB-3-1 [ACC 158] cells; assay: MTT cytotoxicity assay, KB-3-1; settings: KB-3-1, MTT, tested 37 μg/mL–0.63 ng/mL, read-out: IC50
Description: (§1) Cytotoxic effects were evaluated on human endocervical adenocarcinoma KB-3-1 [ACC 158] cells and mouse fibroblasts L929 [ACC 2] upon treatment with Rub C, W, and Rut A and B within the concentration range of 37 μg/mL–0.63 ng/mL. The half-maximum inhibitory concentrations (IC50) were determined by standard MTT assays as reported previously (see the Supplementary Material for detailed information). The IC50 values of Rub A and Z have currently been reported. […]
(§2) KB-3-1 (ACC 158) cervix carcinoma as well as L929 (ACC 2) mouse fibroblasts were cultured under standard cell culture conditions (37 °C, 5% CO2, 95% humidified atmosphere). The cells were maintained in high glucose DMEM containing 10% fetal bovine serum and 100 U/mL penicillin and streptomycin (Gibco, Thermo Fisher Scientific, Waltham, USA). Cell lines were serially passaged after trypsinization, using 0.05% trypsin / 0.02% EDTA solution. The cultures were routinely monitored for potential contamination, and only mycoplasma free cultures were used. The test compounds were investigated for their anti-proliferative effect on cell lines, using the 3-(4,5-dimethylthiazol-2-yl)-2,5-diphenyltetrazolium bromide (MTT) based cell viability assay. Cells were seeded in 96 well microtiter plates (Sarstedt, Germany) with a cell density of 0.05 * 10^6 cells per mL and 100 μL per well and were incubated for 24 h. […]
(§3) Absorbances at 570 nm and 630 nm were measured with a plate reader (Tecan, Männedorf, canton of Zürich, Switzerland). Background absorbance (630 nm) was subtracted from the formazan signal (570 nm). The resulting absorbance is directly proportional to the amount of viable cells. The control was normalized to 100% viable cells, and the viability of cells treated with the test compounds was calculated accordingly. IC50 values were calculated based on a sigmoidal fit model using GraphPad Prism. Means and SD were calculated from at least four independent experiments. […]

[2] = system: mouse fibroblasts L929 [ACC 2]; assay: MTT cytotoxicity assay, L929; settings: MTT, tested 37 μg/mL–0.63 ng/mL, read-out: IC50
Description: as §1, §2, §3

[3] = system: murine fibroblasts (L929) and human endocervical adenocarcinoma cells (KB-3-1); assay: MTT cytotoxicity, range stated over both cell lines; settings: range over Rut A and Rut B and over L929 and KB-3-1
Description: as §1
KB-3-1 (ACC 158) cervix carcinoma as well as L929 (ACC 2) mouse fibroblasts were cultured under standard cell culture conditions (37 °C, 5% CO2, 95% humidified atmosphere). […] The cultures were routinely monitored for potential contamination, and only mycoplasma free cultures were used. […]
as §3

[4] = system: Staphylococcus aureus (DSM 1104) biofilm; assay: Crystal violet biofilm inhibition assay, S. aureus; settings: for inhibitory effects against the biofilm formation of S. aureus: CV assay; for inhibition at 2 µg/mL / inhibition at 3.9 µg/mL / inhibition at 7.8 µg/mL / inhibition at 15.6 µg/mL / inhibition at 31.3 µg/mL / inhibition at 62.5 µg/mL / inhibition at 125 µg/mL / inhibition at 250 µg/mL: Staphylococcus aureus, DSM1104, read-out: inhibition of S. aureus biofilm formation compared to solvent control (= 0%)
Description: Selected azaphilones Rub C and W, Rut A and B were tested against the formation of biofilms in Staphylococcus aureus (DSM 1104). S. aureus DSM 1104 from a −20 °C stock was precultured in 25 mL CASO (casein-peptone soymeal-peptone) medium in a 250 mL flask at 37 °C with 100 rpm for 20 h. The OD600 of the culture solution was adjusted to 0.001 McFarland standard and incubated in 96-well microtiter plates (TPP tissue culture ref.no 92196, Switzerland) for 18 h at 37 °C with 150 μL of serially diluted test […]
compounds (250–2 μg/mL) in CASO with 4% glucose broth. The inhibition of biofilm formation was evaluated by staining with 150 μL of 0.1% crystal violet (CV; Thermo Fisher) following previously established protocols. In the next step, the supernatant of the 96-well plate was discarded and the wells were rinsed once with PBS buffer. The remaining biofilms were stained at room temperature for 15 min, rinsed three times with PBS buffer, and finally dissolved in 150 μL ethanol (95%). The absorbance of the resulting solution at 530 nm was quantified using a plate reader (Synergy 2, BioTek). Methanol (2.5%) and microporenic acid A (MAA) (250–2 μg/mL) were used as negative and positive controls. Standard deviations (SD) of two repeats with duplicates were 10% or less. […]
μg/mL) were used as negative control and positive control, respectively. The assay was conducted for […]
(§4) Table S2: Selected azaphilones were tested against the formation of biofilm of S. aureus, P. aeruginosa as well as C. auris and dispersal effect on preformed biofilm of S. aureus compared to solvent control (= 0%), respectively. SDs are shown as ±SD.
(§5) Compounds Strains Concentrations [µg/mL] […]

[5] = system: Pseudomonas aeruginosa (PA 14) DSM 19882 biofilm; assay: Crystal violet biofilm inhibition assay, P. aeruginosa; settings: Pseudomonas aeruginosa, DSM19882, assay conducted once, read-out: inhibition of P. aeruginosa biofilm formation compared to solvent control (= 0%)
Description: Selected azaphilones Rub C and W, Rut A and B were tested against the formation of biofilms in Pseudomonas aeruginosa (PA 14) DSM 19882. Bacterial strain was precultured in 25 mL LB medium (Luria - Bertani Broth) with a 250 mL flask at 37 °C with shaking 100 rpm overnight. The turbidity of the baterial solution was measured and diluted to match the turbidity of a 0.1 McFarland standard in M63 medium, which is supplemented with magnesium sulfate, glucose and casamino acids as previously described. The compounds were added into 150 μL bacterial solution at the concentration (250–2 μg/mL) then the solution was added in U-bottom 96 well plate (Falcon ref.no 351177, Thermo Fisher Scientific). The plates were incubated at 37 °C at 150 rpm for 24 h and biofilms were established at the air liquid interface. The plates were rinsed once by using PBS buffer, the biofilms were stained by 150 μL 0.1% CV at room temperature for 15 min and then rinsed two times by using PBS buffer. The absorbance was quantified with the plate reader (Synergy 2, BioTek) at 550 nm using ethanol (95%). Methanol (2.5 %) and myxovalargin A (250 –2 μg/mL) were used as negative control and positive control, respectively. The assay was conducted for […]
as §4, §5

Row | Compound | IC50 [1] [nM] | IC50 [2] [nM] | IC50 [3] | inhibitory effects against the biofilm formation of S. aureus [4] | inhibition at 2 µg/mL [4] [%] | inhibition at 3.9 µg/mL [4] [%] | inhibition at 7.8 µg/mL [4] [%] | inhibition at 15.6 µg/mL [4] [%] | inhibition at 31.3 µg/mL [4] [%] | inhibition at 62.5 µg/mL [4] [%] | inhibition at 125 µg/mL [4] [%] | inhibition at 250 µg/mL [4] [%] | inhibition at 2 µg/mL [5] [%] | inhibition at 3.9 µg/mL [5] [%] | inhibition at 7.8 µg/mL [5] [%] | inhibition at 15.6 µg/mL [5] [%] | inhibition at 31.3 µg/mL [5] [%] | inhibition at 62.5 µg/mL [5] [%] | inhibition at 125 µg/mL [5] [%] | inhibition at 250 µg/mL [5] [%]
1 | CC(=O)OC/C=C/C1=CC2=C(CO1)C(=O)[C@@](C)(OC(=O)c1c(C)cc(O)cc1O)C(=O)/C2=C\C=C\C1=CC2=C(CO1)C(=O)[C@@](C)(OC(=O)c1c(C)cc(O)cc1O)[C@@H](O)C2 [Rut B, rutilin B] | 1500 | 2200 | 1.1 µM to 2.2 µM and 0.9 µg/mL to 1.8 µg/mL | moderate inhibitory effects | 86 ± 2 | 88 ± 1 | 88 ± 1 | 87 ± 2 | 86 ± 2 | 86 ± 2 | 85 ± 2 | 84 ± 2 | < 20 | < 20 | < 20 | < 20 | < 20 | < 20 | < 20 | < 20
2 | CC(=O)OC/C=C/C1=CC2=C(CO1)C(=O)[C@@](C)(OC(=O)c1c(C)cc(O)cc1O)C(=O)/C2=C\C=C\C1=CC2=C(CO1)C(=O)[C@@](C)(O)[C@@H](OC(=O)c1c(C)cc(O)cc1O)C2 [Rut A, rutilin A] | 1100 | 1200 | 1.1 µM to 2.2 µM and 0.9 µg/mL to 1.8 µg/mL | moderate inhibitory effects | < 20 | < 20 | < 20 | 21 ± 2 | 51 ± 10 | 51 ± 10 | 55 ± 9 | 60 ± 6 | < 20 | < 20 | < 20 | < 20 | < 20 | < 20 | < 20 | < 20

Source: publication PMC10381533, “Inhibitory Effects of the Fungal Pigment Rubiginosin C on Hyphal and Biofilm Formation in Candida albicans and Candida auris” (Journal of Fungi, 2023)
